From PubChem BioAssay AID2060897 (Molecular Pharmacology Branch, DTP, NCI, 2025)

Tested on: 966289-007-R4-J1-PDC complex spheroid viability
Test: Anticancer human tumor 966289-007-R4-J1-PDC patient-derived pancreatic adenocarcinoma cell line growth inhibition [RAS]
Details: for IC50: curve of first compound; for viability, T/C: stronger effect = lower value; active = viability on the fitted dose curve at most 10% of control; inactive = the rest
Summary of the method: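 Tumour cells grown as complex spheroids with HUVEC endothelial cells and mesenchymal stem cells, treated with RAS pathway inhibitor combinations. Each agent spans half-log steps from near clinical Cmax, or 10 microM where Cmax is unknown.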
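Also: spheroids exposed to agents for one week before readout.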
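For viability, T/C in this document: percent viability relative to DMSO vehicle control wells as 100%.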

CC1(O)CCCC1n1c(=O)c(C(F)F)cc2cnc(NC3CCN(S(C)(=O)=O)CC3)nc21 (configuration not stated) + C=CC(=O)N1CCN(c2nc(OCC3CCCN3C)nc3c(F)c(-c4nc(N)cc(C)c4C(F)(F)F)c(Cl)cc23)C(C)C1
154 nM: IC50 (second compound 0.316 µM)
125 nM: IC50 (second compound 1 µM)
inactive: viability, T/C (second compound 0.00316 µM, first compound 0.0316 µM) 130% | viability, T/C (second compound 0.00316 µM, first compound 0.1 µM) 56.8% | viability, T/C (second compound 0.00316 µM, first compound 0.316 µM) 25% | viability, T/C (second compound 0.00316 µM, first compound 1 µM) 27% | viability, T/C (second compound 0.00316 µM, first compound 3.16 µM) 29.8% | viability, T/C (second compound 0.00316 µM, first compound 10 µM) 3.73% | viability, T/C (second compound 0.01 µM, first compound 0.0316 µM) 138% | viability, T/C (second compound 0.01 µM, first compound 0.1 µM) 66.5% | viability, T/C (second compound 0.01 µM, first compound 0.316 µM) 21.4% | viability, T/C (second compound 0.01 µM, first compound 1 µM) 28.2% | viability, T/C (second compound 0.01 µM, first compound 3.16 µM) 26.4% | viability, T/C (second compound 0.01 µM, first compound 10 µM) 3.99% | viability, T/C (second compound 0.0316 µM, first compound 0.0316 µM) 129% | viability, T/C (second compound 0.0316 µM, first compound 0.1 µM) 66.3% | viability, T/C (second compound 0.0316 µM, first compound 0.316 µM) 26.9% | viability, T/C (second compound 0.0316 µM, first compound 1 µM) 24.9% | viability, T/C (second compound 0.0316 µM, first compound 3.16 µM) 26.2% | viability, T/C (second compound 0.0316 µM, first compound 10 µM) 3.83% | viability, T/C (second compound 0.1 µM, first compound 0.0316 µM) 121% | viability, T/C (second compound 0.1 µM, first compound 0.1 µM) 60% | viability, T/C (second compound 0.1 µM, first compound 0.316 µM) 28.8% | viability, T/C (second compound 0.1 µM, first compound 1 µM) 27.8% | viability, T/C (second compound 0.1 µM, first compound 3.16 µM) 27.9% | viability, T/C (second compound 0.1 µM, first compound 10 µM) 3.1% | viability, T/C (second compound 0.316 µM, first compound 0.0316 µM) 117% | viability, T/C (second compound 0.316 µM, first compound 0.1 µM) 61.9% | viability, T/C (second compound 0.316 µM, first compound 0.316 µM) 25.1% | viability, T/C (second compound 0.316 µM, first compound 1 µM) 27.7% | viability, T/C (second compound 0.316 µM, first compound 3.16 µM) 23.1% | viability, T/C (second compound 0.316 µM, first compound 10 µM) 3.69% | viability, T/C (second compound 1 µM, first compound 0.0316 µM) 123% | viability, T/C (second compound 1 µM, first compound 0.1 µM) 56.8% | viability, T/C (second compound 1 µM, first compound 0.316 µM) 21.2% | viability, T/C (second compound 1 µM, first compound 1 µM) 24% | viability, T/C (second compound 1 µM, first compound 3.16 µM) 22.8% | viability, T/C (second compound 1 µM, first compound 10 µM) 3.51%
156 nM: IC50 (second compound 0.1 µM)
171 nM: IC50 (second compound 0.0316 µM)
151 nM: IC50 (second compound 0.01 µM)
133 nM: IC50 (second compound 0.00316 µM)
